In patent publication US20220125765A1, “PHARMACEUTICAL COMBINATIONS COMPRISING MEBENDAZOLE AND A STRONG OR MODERATE CYP1A2 INHIBITOR” (ZEPHAPHARM LTD, priority 2019, published 2022):
Where two headings read alike, the source gives them in different places.

How the values were obtained:
[1] = Stability in human cryopreserved hepatocytes without and with cimetidine or thiabendazole (Example 6); conditions: human, cryopreserved hepatocytes (suspension), substrate 1 μM, no inhibitor
Method: Mebendazole (1 μM) was incubated with cryopreserved human hepatocytes for 60 min in the absence and presence of cimetidine at 30, 100 and 300 μM) and thiabendazole at 10, 30 and 100 μM and samples taken at the required time points. The amount of test compound remaining at each time point was analysed by LC-MS/MS. Appropriate control compounds were also incubated along with ethoxycoumarin, which was incubated in the absence and presence of cimetidine and thiabendazole.
The final incubation volume was 500 μL. Two control compounds were included, alongside appropriate vehicle control. A positive control compound, ethoxycoumarin, for CYP1A2 was included. The positive control compound was incubated without inhibitor and in the presence of each inhibitor. The reactions were stopped by transferring 50 μL of incubate to 100 μL acetonitrile containing internal standard at the appropriate time points (0, 5, 10, 20, 40 and 60 min). The termination plates were centrifuged at 2500 rpm at 4° C. for 30 min to precipitate the protein.

[2] = Stability in human cryopreserved hepatocytes without and with cimetidine or furafylline (Example 5); type: in vitro ADME; conditions: human, cryopreserved hepatocytes (suspension), substrate 1 μM, no inhibitor; read-out: t1/2
Method: The final incubation volume was 500 μL. Two control compounds were included with each species, alongside appropriate vehicle control.
The samples were analysed for mebendazole or ethoxycoumarin using LC-MS/MS.
The final incubation volume was 500 μL.
A positive control compound, ethoxycoumarin, for CYP1A2 was included. […] The samples were analysed for mebendazole or ethoxycoumarin using LC-MS/MS.

[3] = target: T1, CYP2B6 (Homo sapiens, UniProt P20813); assay: Cytochrome P450 reaction phenotyping, recombinant CYP2B6 (Bactosomes); conditions: CYP2B6, substrate 1 μM
T1 sequence (P20813 1-491): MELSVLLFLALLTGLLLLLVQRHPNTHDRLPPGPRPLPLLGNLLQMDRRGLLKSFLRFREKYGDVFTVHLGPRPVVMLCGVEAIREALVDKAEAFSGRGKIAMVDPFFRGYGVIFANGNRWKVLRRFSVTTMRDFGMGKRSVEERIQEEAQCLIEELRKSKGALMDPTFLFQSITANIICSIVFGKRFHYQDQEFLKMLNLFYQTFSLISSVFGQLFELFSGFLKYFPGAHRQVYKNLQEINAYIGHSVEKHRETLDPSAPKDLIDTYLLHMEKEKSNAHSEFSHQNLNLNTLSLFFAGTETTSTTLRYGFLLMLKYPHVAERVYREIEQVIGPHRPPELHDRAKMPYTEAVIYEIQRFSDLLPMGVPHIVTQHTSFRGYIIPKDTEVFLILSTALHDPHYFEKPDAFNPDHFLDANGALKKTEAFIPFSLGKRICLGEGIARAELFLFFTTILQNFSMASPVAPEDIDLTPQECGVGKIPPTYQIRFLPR
Method: (§1) Incubations were also performed using control Bactosomes™ (no P450 enzymes present) to reveal any non-enzymatic degradation. Control compounds known to be metabolised specifically by each P450 isoform were included. All incubations were performed singularly for each test compound.
(§2) Incubations were also performed using control Bactosomes™ (no P450 enzymes present) to reveal any non-enzymatic degradation. Control compounds known to be metabolised specifically by each P450 isoform were included. All incubations were performed singularly for each test compound. […] The reactions were stopped by transferring an aliquot of incubate to quench solvent at the appropriate time points, in a 1:3 ratio. The termination plates were centrifuged at 3,000 rpm for 20 min at 4° C. to precipitate the protein.

[4] = target: CYP2C9 (Homo sapiens, UniProt P11712); assay: Cytochrome P450 reaction phenotyping, recombinant CYP2C9 (Bactosomes); conditions: human, recombinant enzyme, pH 7.4
Method: as §1, §2

[5] = target: CYP2C19 (Homo sapiens, UniProt P33261); assay: Cytochrome P450 reaction phenotyping, recombinant CYP2C19 (Bactosomes); conditions: human, recombinant enzyme, pH 7.4
Method: as §1, §2

[6] = Ricobendazole microsomal metabolic stability without and with cimetidine or furafylline (Example 8); type: in vitro ADME; conditions: human, liver microsomes; for half-life at 0.1 μM: read-out: t½
Method: Incubation in the absence of NADPH was also performed to assess non-CYP mediated stability. Appropriate control compounds were also incubated.
A minus cofactor control incubation was included for each compound tested where 0.1 M phosphate buffer pH 7.4 was added instead of NADPH (minus NADPH). […] A control compound (phenacetin) was included (incubated without and with inhibitors as described above). All incubations were performed singularly for each test compound. Each incubation was carried out for 0, 5, 15, 30 and 45 min. The control (minus NADPH) was incubated for 45 min only.

[7] = target: T2, CYP2C8 (Homo sapiens, UniProt P10632); assay: Cytochrome P450 reaction phenotyping, recombinant CYP2C8 (Bactosomes); conditions: CYP2C8, substrate 1 μM
T2 sequence (P10632 1-490): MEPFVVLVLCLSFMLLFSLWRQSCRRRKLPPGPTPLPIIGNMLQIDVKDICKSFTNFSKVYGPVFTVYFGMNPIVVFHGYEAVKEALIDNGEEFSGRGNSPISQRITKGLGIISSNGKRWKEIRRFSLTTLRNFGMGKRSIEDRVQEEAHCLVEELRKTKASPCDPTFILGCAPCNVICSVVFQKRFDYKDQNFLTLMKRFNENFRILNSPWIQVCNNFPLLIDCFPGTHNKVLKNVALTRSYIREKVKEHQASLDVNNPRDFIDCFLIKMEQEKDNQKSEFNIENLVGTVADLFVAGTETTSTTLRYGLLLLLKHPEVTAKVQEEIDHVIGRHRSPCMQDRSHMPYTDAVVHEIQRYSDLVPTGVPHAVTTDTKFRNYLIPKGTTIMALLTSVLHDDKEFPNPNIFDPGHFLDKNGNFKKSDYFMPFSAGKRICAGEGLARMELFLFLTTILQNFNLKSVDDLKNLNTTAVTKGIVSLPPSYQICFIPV
Method: as §1, §2

[8] = target: T3, CYP1A2 (Homo sapiens, UniProt P05177); assay: Cytochrome P450 reaction phenotyping, recombinant CYP1A2 (Bactosomes)
T3 sequence (P05177 1-516): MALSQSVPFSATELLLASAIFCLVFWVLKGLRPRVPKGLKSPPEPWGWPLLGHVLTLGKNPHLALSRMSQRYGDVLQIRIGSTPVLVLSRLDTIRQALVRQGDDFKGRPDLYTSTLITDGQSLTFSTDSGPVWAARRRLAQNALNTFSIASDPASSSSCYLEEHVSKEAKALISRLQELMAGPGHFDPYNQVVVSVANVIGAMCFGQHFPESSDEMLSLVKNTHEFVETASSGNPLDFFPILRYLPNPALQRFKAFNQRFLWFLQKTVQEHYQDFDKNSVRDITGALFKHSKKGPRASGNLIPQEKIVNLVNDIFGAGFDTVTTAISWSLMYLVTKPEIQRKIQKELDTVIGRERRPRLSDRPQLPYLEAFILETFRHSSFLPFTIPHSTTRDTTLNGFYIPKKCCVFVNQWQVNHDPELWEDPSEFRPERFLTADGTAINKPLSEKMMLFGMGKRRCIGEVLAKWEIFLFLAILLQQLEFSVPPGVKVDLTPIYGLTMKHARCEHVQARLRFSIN
Method: as §1, §2

[9] = target: CYP2D6 (Homo sapiens, UniProt P10635); assay: Cytochrome P450 reaction phenotyping, recombinant CYP2D6 (Bactosomes); conditions: human, recombinant enzyme, pH 7.4
Method: as §1, §2

[10] = target: CYP3A4 (Homo sapiens, UniProt P08684); assay: Cytochrome P450 reaction phenotyping, recombinant CYP3A4 (Bactosomes); conditions: human, recombinant enzyme, pH 7.4
Method: as §1, §2

CYP3A4, sequence (P08684 whole entry): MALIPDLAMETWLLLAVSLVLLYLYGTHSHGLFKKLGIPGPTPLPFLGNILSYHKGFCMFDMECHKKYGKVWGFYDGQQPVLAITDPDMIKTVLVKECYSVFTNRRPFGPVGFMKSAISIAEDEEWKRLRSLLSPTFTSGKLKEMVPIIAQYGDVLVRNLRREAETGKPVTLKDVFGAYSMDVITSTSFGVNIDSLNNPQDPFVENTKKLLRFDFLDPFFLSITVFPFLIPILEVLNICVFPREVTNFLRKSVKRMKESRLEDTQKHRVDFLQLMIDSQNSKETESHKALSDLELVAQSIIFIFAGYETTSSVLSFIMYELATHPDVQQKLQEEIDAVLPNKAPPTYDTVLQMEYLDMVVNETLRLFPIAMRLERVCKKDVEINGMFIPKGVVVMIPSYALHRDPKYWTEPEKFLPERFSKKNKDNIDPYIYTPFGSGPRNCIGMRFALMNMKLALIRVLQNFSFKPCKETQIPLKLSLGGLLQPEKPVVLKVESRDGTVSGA
CYP2C9, sequence (P11712 whole entry): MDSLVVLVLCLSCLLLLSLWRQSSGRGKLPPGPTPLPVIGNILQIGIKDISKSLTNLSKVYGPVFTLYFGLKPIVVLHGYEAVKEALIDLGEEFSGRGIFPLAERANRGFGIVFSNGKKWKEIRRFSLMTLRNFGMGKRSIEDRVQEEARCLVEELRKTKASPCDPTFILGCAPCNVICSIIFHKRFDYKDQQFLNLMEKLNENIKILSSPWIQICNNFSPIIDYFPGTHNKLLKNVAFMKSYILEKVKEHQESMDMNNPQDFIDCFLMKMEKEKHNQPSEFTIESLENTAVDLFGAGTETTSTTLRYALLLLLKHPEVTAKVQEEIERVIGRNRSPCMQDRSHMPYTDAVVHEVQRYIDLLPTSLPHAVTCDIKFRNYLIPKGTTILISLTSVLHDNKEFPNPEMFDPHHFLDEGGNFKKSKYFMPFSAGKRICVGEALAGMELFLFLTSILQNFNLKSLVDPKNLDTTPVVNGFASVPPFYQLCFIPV
CYP2D6, sequence (P10635 whole entry): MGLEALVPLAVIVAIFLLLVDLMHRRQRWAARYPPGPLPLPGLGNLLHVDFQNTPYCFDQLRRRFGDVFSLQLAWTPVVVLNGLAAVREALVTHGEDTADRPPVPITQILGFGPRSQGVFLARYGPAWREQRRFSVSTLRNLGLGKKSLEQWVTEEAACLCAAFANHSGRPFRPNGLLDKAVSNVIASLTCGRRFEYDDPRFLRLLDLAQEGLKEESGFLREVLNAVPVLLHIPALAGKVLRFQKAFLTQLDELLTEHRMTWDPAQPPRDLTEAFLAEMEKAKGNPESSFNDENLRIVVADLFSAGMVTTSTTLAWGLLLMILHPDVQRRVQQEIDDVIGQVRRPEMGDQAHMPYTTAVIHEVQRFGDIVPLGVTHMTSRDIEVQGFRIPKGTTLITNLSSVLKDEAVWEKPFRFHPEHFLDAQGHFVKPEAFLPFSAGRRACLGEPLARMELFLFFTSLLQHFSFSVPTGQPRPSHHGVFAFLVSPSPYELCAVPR
CYP2C19, sequence (P33261 whole entry): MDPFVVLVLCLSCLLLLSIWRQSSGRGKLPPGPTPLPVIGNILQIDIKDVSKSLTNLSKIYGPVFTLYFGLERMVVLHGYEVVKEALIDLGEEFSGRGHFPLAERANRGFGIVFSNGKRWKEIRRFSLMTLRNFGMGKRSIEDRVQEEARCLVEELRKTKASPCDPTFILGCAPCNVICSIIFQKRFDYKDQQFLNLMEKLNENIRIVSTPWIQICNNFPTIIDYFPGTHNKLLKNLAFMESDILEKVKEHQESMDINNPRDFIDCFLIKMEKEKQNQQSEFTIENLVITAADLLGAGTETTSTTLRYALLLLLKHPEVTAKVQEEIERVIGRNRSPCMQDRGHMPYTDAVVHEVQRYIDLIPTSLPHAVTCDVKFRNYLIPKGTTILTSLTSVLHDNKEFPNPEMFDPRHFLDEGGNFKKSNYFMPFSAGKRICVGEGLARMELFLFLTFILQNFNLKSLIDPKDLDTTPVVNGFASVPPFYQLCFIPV

O=c1ccc2ccc(O)cc2o1 [Umbelliferone]
hepatocyte CLint at 1 µM ([1]; CLint): 229 µL/min/1e6 cells
half-life at 1 μM ([1]; t½): 6.05 min
half-life at 1 μM [2]: 7.95 min

CCC[S+]([O-])c1ccc2[nH]c(NC(=O)OC)nc2c1 (stereo not drawn) [Ricobendazole, albendazole sulphoxide]
metabolism by recombinant enzyme [3]: not metabolised
half-life at 1 μM [4]: 4.53 ± 2.67 h
half-life at 1 μM [5]: 10.3 ± 10.8 h
microsomal CLint at 0.1 μM ([6]; pH 7.4, with cimetidine 30 μM, 0.1 μM, 1 mg/mL, cimetidine 30 μM, read-out: CLint): 3.15 ± 1.24 µL/min/mg
half-life at 0.1 μM ([6]; pH 7.4, with cimetidine 30 μM, 0.1 μM, 1 mg/mL, cimetidine 30 μM): 3.67 h
microsomal CLint at 0.1 μM ([6]; pH 7.4, with cimetidine 100 μM, 0.1 μM, 1 mg/mL, cimetidine 100 μM, read-out: CLint): 3.43 ± 1.56 µL/min/mg
half-life at 0.1 μM ([6]; pH 7.4, with cimetidine 100 μM, 0.1 μM, 1 mg/mL, cimetidine 100 μM): 3.37 h
microsomal CLint at 0.1 μM ([6]; pH 7.4, with cimetidine 300 μM, 0.1 μM, 1 mg/mL, cimetidine 300 μM, read-out: CLint): 3.54 ± 1.09 µL/min/mg
half-life at 0.1 μM ([6]; pH 7.4, with cimetidine 300 μM, 0.1 μM, 1 mg/mL, cimetidine 300 μM): 3.27 h
microsomal CLint at 0.1 μM ([6]; pH 7.4, with furafylline 3 μM, read-out: CLint): 1.27 ± 2.47 µL/min/mg
half-life at 0.1 μM ([6]; pH 7.4, with furafylline 3 μM): 9.08 h
microsomal CLint at 0.1 μM ([6]; pH 7.4, with furafylline 10 μM, read-out: CLint): 4.31 ± 2.48 µL/min/mg
half-life at 0.1 μM ([6]; pH 7.4, with furafylline 10 μM): 2.68 h
microsomal CLint at 0.1 μM ([6]; pH 7.4, with furafylline 30 μM, read-out: CLint): 2.92 ± 1.75 µL/min/mg
half-life at 0.1 μM ([6]; pH 7.4, with furafylline 30 μM): 3.95 h
microsomal CLint at 0.1 μM ([6]; pH 7.4, 0.1 μM, 1 mg/mL, no inhibitor, read-out: CLint): 2.83 ± 1.76 µL/min/mg
half-life at 0.1 μM ([6]; pH 7.4, 0.1 μM, 1 mg/mL, no inhibitor): 4.08 h
microsomal CLint at 0.1 μM ([6]; optimisation, 0.1 μM and 1 mg/mL protein, read-out: intrinsic clearance): 6.63 ± 1.84 µL/min/mg
microsomal CLint at 1 μM ([6]; optimisation, 1 μM and 0.5 mg/mL protein, read-out: intrinsic clearance): 4.39 ± 2.77 µL/min/mg
metabolism by recombinant enzyme [7]: not metabolised
% remaining ([8]; CYP1A2, substrate 1 μM, 45 min): 85%
half-life at 1 μM ([8]; human, recombinant enzyme, pH 7.4): 4 ± 0.635 h
half-life at 1 μM [9]: 7.75 ± 4.55 h
half-life at 1 μM [10]: 8.15 ± 11.4 h
